Results on 25 substances are retold here after the OligoGym collection.

HELM strings list units from the 5' end as sugar, base in round brackets, then linkage (d deoxyribose, r ribose, m 2'-O-methyl, p phosphodiester). Strings are as the collection lists them; they lack the last nucleoside at the 3' end of the tested compound. [moe] = 2'-O-(2-methoxyethyl) (MOE); [sp] = phosphorothioate linkage; [m5C] = 5-methylcytosine

This series addresses GFAP. The series is described as follows: mouse, dose not given. The settings on record: ASO.
Consider “RNA1{[moe](G)[sp].[moe](T)p.[moe](G)p.[moe](A)p.d([m5C])[sp].d(T)[sp].d(A)[sp].d(T)[sp].d([m5C])[sp].d(T)[sp].d(A)[sp].d(G)[sp].d(G)[sp].d(A)[sp].[moe](T)p.[moe](T)p.[moe](T)p.[moe](G)[sp].[moe](G)}$$$$ (last 3' nucleoside missing)”, for which the 3 h FOB score is 3 score 0-7.
For “RNA1{[moe](G)[sp].[moe](T)p.[moe](G)p.[moe](G)p.[moe](A)[sp].d(G)[sp].d(G)[sp].d(G)[sp].d([m5C])[sp].d(G)[sp].d(A)[sp].d(T)[sp].d(G)[sp].d(T)[sp].d(A)[sp].[moe](G)p.[moe](T)p.[moe](A)[sp].[moe](G)}$$$$ (last 3' nucleoside missing)”, the 3 h FOB score turned out to be 7 score 0-7.
With “RNA1{[moe](G)[sp].[moe](T)p.[moe](G)p.[moe](G)p.[moe](T)p.d([m5C])[sp].d([m5C])[sp].d(T)[sp].d(A)[sp].d(A)[sp].d(A)[sp].d(T)[sp].d(A)[sp].d(T)[sp].d(T)[sp].[moe]([m5C])p.[moe](T)p.[moe](A)[sp].[moe](G)}$$$$ (last 3' nucleoside missing)” the figure was 1 score 0-7; with “RNA1{[moe](G)[sp].[moe](T)p.[moe](G)p.[moe](T)p.[moe](A)[sp].d(T)[sp].d(T)[sp].d(A)[sp].d(G)[sp].d(G)[sp].d(A)[sp].d(T)[sp].d([m5C])[sp].[moe]([m5C])p.[moe]([m5C])p.[moe](A)[sp].[moe](T)}$$$$ (last 3' nucleoside missing)”, 4 score 0-7; with “RNA1{[moe](G)[sp].[moe](T)p.[moe](G)p.[moe](T)p.[moe](A)[sp].d(T)[sp].d(T)[sp].d(A)[sp].d(G)[sp].d(G)[sp].d(A)[sp].d(T)[sp].d([m5C])[sp].d([m5C])[sp].d([m5C])[sp].[moe](A)p.[moe](T)p.[moe]([m5C])[sp].[moe](T)}$$$$ (last 3' nucleoside missing)”, 4 score 0-7.
As for “RNA1{[moe](G)[sp].[moe](T)p.[moe](G)p.[moe](T)p.[moe](A)p.[moe](T)p.d(T)[sp].d(A)[sp].d(G)[sp].d(G)[sp].d(A)[sp].d(T)[sp].d([m5C])[sp].d([m5C])[sp].d([m5C])[sp].d(A)[sp].[moe](T)p.[moe]([m5C])[sp].[moe](T)}$$$$ (last 3' nucleoside missing)”, the figure is 4 score 0-7.
With “RNA1{[moe](G)[sp].[moe](T)p.[moe](G)p.[moe](T)p.[moe](A)p.d(T)[sp].d(T)[sp].d(A)[sp].d(G)[sp].d(G)[sp].d(A)[sp].d(T)[sp].d([m5C])[sp].d([m5C])[sp].d([m5C])[sp].[moe](A)p.[moe](T)p.[moe]([m5C])[sp].[moe](T)}$$$$ (last 3' nucleoside missing)” the figure was 2 score 0-7; with “RNA1{[moe](G)[sp].[moe](T)p.[moe](G)p.[moe](T)p.[moe](G)[sp].d(T)[sp].d(A)[sp].d(T)[sp].d(T)[sp].d(A)[sp].d(G)[sp].d(G)[sp].d(A)[sp].[moe](T)p.[moe]([m5C])p.[moe]([m5C])[sp].[moe]([m5C])}$$$$ (last 3' nucleoside missing)”, 3 score 0-7; with “RNA1{[moe](G)[sp].[moe](T)p.[moe](G)p.[moe](T)p.[moe](G)[sp].d(T)[sp].d(A)[sp].d(T)[sp].d(T)[sp].d(A)[sp].d(G)[sp].d(G)[sp].d(A)[sp].d(T)[sp].d([m5C])[sp].[moe]([m5C])p.[moe]([m5C])p.[moe](A)[sp].[moe](T)}$$$$ (last 3' nucleoside missing)”, 6 score 0-7.
“RNA1{[moe](G)[sp].[moe](T)p.[moe](G)p.[moe](T)p.[moe](G)p.[moe](T)p.d(A)[sp].d(T)[sp].d(T)[sp].d(A)[sp].d(G)[sp].d(G)[sp].d(A)[sp].d(T)[sp].d([m5C])[sp].d([m5C])[sp].[moe]([m5C])p.[moe](A)[sp].[moe](T)}$$$$ (last 3' nucleoside missing)” had a 3 h FOB score of 4 score 0-7.
As for “RNA1{[moe](G)[sp].[moe](T)p.[moe](G)p.[moe](T)p.d(A)[sp].d(T)[sp].d(T)[sp].d(A)[sp].d(G)[sp].d(G)[sp].d(A)[sp].d(T)[sp].d([m5C])[sp].d([m5C])[sp].[moe]([m5C])p.[moe](A)p.[moe](T)p.[moe]([m5C])[sp].[moe](T)}$$$$ (last 3' nucleoside missing)”, the figure is 3 score 0-7; as for “RNA1{[moe](G)[sp].[moe](T)p.[moe](G)p.[moe]([m5C])p.[moe](T)[sp].d(G)[sp].d(A)[sp].d(G)[sp].d(A)[sp].d(A)[sp].d(T)[sp].d([m5C])[sp].d(A)[sp].d(A)[sp].d(G)[sp].[moe]([m5C])p.[moe](T)p.[moe]([m5C])[sp].[moe]([m5C])}$$$$ (last 3' nucleoside missing)”, 0 score 0-7; as for “RNA1{[moe](G)[sp].[moe](T)p.[moe](G)p.[moe]([m5C])p.[moe](T)[sp].d(G)[sp].d([m5C])[sp].d(T)[sp].d(G)[sp].d([m5C])[sp].d([m5C])[sp].d(A)[sp].d(G)[sp].d(A)[sp].d(G)[sp].[moe](T)p.[moe]([m5C])p.[moe]([m5C])[sp].[moe](T)}$$$$ (last 3' nucleoside missing)”, 6 score 0-7.
“RNA1{[moe](G)[sp].[moe](T)p.[moe](G)p.[moe]([m5C])p.[moe](T)[sp].d(T)[sp].d(T)[sp].d(A)[sp].d(G)[sp].d(T)[sp].d(G)[sp].d(A)[sp].d([m5C])[sp].d([m5C])[sp].d(T)[sp].[moe](G)p.[moe](T)p.[moe](G)[sp].[moe](A)}$$$$ (last 3' nucleoside missing)” returned a 3 h FOB score of 5 score 0-7.
As for “RNA1{[moe](G)[sp].[moe](T)p.[moe](G)p.[moe]([m5C])p.[moe](T)[sp].d(T)[sp].d(T)[sp].d(T)[sp].d([m5C])[sp].d(T)[sp].d(G)[sp].d([m5C])[sp].d([m5C])[sp].d(T)[sp].d([m5C])[sp].[moe]([m5C])p.[moe](A)p.[moe](G)[sp].[moe](G)}$$$$ (last 3' nucleoside missing)”, the figure is 2 score 0-7.
As for “RNA1{[moe](G)[sp].[moe](T)p.[moe](G)p.[moe]([m5C])p.[moe](T)p.[moe](T)p.d(T)[sp].d(T)[sp].d(G)[sp].d([m5C])[sp].d([m5C])[sp].d([m5C])[sp].d([m5C])[sp].d([m5C])[sp].d(T)[sp].d(G)[sp].[moe](T)p.[moe](A)[sp].[moe](G)}$$$$ (last 3' nucleoside missing)”, the figure is 3 score 0-7; as for “RNA1{[moe](G)[sp].[moe](T)p.[moe](G)p.[moe]([m5C])p.[moe]([m5C])[sp].d([m5C])[sp].d([m5C])[sp].d([m5C])[sp].d([m5C])[sp].d(G)[sp].d([m5C])[sp].d([m5C])[sp].d([m5C])[sp].d(T)[sp].d([m5C])[sp].[moe]([m5C])p.[moe](T)p.[moe]([m5C])[sp].[moe]([m5C])}$$$$ (last 3' nucleoside missing)”, 2 score 0-7; as for “RNA1{[moe](G)[sp].[moe](T)p.[moe](G)p.[moe]([m5C])p.d(T)[sp].d(T)[sp].d(T)[sp].d(T)[sp].d(G)[sp].d([m5C])[sp].d([m5C])[sp].d([m5C])[sp].d([m5C])[sp].d([m5C])[sp].[moe](T)p.[moe](G)p.[moe](T)p.[moe](A)[sp].[moe](G)}$$$$ (last 3' nucleoside missing)”, 3 score 0-7.
As for “RNA1{[moe](G)[sp].[moe](T)p.[moe](T)p.[moe](T)p.[moe]([m5C])[sp].d(T)[sp].d(T)[sp].d(G)[sp].d(T)[sp].d(T)[sp].d(A)[sp].d(G)[sp].d(T)[sp].d(T)[sp].d(G)[sp].[moe](G)p.[moe](A)p.[moe](G)[sp].[moe](T)}$$$$ (last 3' nucleoside missing)”, the figure is 7 score 0-7; as for “RNA1{[moe](G)[sp].[moe](T)p.[moe](T)p.[moe](T)p.[moe]([m5C])[sp].d([m5C])[sp].d(T)[sp].d(T)[sp].d(T)[sp].d(T)[sp].d(A)[sp].d([m5C])[sp].d([m5C])[sp].d(A)[sp].d(A)[sp].[moe](G)p.[moe]([m5C])p.[moe](T)[sp].[moe](G)}$$$$ (last 3' nucleoside missing)”, 4 score 0-7.
In turn, “RNA1{[moe](G)[sp].[moe](T)p.[moe]([m5C])p.[moe](A)p.[moe](G)[sp].d([m5C])[sp].d([m5C])[sp].d(T)[sp].d(G)[sp].d(G)[sp].d(T)[sp].d(T)[sp].d(A)[sp].[moe](G)p.[moe]([m5C])p.[moe]([m5C])[sp].[moe](T)}$$$$ (last 3' nucleoside missing)” came in with a 3 h FOB score of 1 score 0-7.
“RNA1{[moe](G)[sp].[moe](T)p.[moe]([m5C])p.[moe](A)p.[moe](G)[sp].d([m5C])[sp].d([m5C])[sp].d(T)[sp].d(G)[sp].d(G)[sp].d(T)[sp].d(T)[sp].d(A)[sp].d(G)[sp].d([m5C])[sp].[moe]([m5C])p.[moe](T)p.[moe](T)[sp].[moe](T)}$$$$ (last 3' nucleoside missing)” had a 3 h FOB score of 6 score 0-7.
With “RNA1{[moe](G)[sp].[moe](T)p.[moe]([m5C])p.[moe](A)p.[moe](G)p.[moe]([m5C])p.d([m5C])[sp].d(T)[sp].d(G)[sp].d(G)[sp].d(T)[sp].d(T)[sp].d(A)[sp].d(G)[sp].d([m5C])[sp].d([m5C])[sp].[moe](T)p.[moe](T)[sp].[moe](T)}$$$$ (last 3' nucleoside missing)” the figure was 4 score 0-7; with “RNA1{[moe](G)[sp].[moe](T)p.[moe]([m5C])p.[moe](A)p.[moe](G)p.d([m5C])[sp].d([m5C])[sp].d(T)[sp].d(G)[sp].d(G)[sp].d(T)[sp].d(T)[sp].d(A)[sp].d(G)[sp].d([m5C])[sp].[moe]([m5C])p.[moe](T)p.[moe](T)[sp].[moe](T)}$$$$ (last 3' nucleoside missing)”, 5 score 0-7; with “RNA1{[moe](G)[sp].[moe](T)p.[moe]([m5C])p.[moe](A)p.[moe]([m5C])[sp].d(A)[sp].d(T)[sp].d(T)[sp].d([m5C])[sp].d(A)[sp].d([m5C])[sp].d(T)[sp].d(A)[sp].[moe](A)p.[moe](T)p.[moe](A)[sp].[moe](T)}$$$$ (last 3' nucleoside missing)”, 0 score 0-7.
